Measured values reported in patent publication US12215140B2, “Method of stabilizing protein contained in specimen and solution for stabilizing protein contained in specimen” (EIKEN KAGAKU KABUSHIKI KAISHA, priority 2018, dated 2025).

Tested on: hemoglobin-haptoglobin complex
Assay: Stability of hemoglobin (as hemoglobin-haptoglobin complex) in samples preserved at 37° C. in preservation solution containing 1 unit/L haptoglobin, Hb measured by latex agglutination method (Examples 1 to 7)
Design: species or system human
Settings: arylboronic acid 15 mmol/L, 37° C.
Protocol: Preservation solutions were prepared with the addition of 40 mmol/L HEPES (pH 6.8), 0.1% BSA, 0.1% NaN3, 1 unit/L haptoglobin, and 0 to 100 mmol/L phenylboronic acid. Samples obtained by adding hemoglobin-added fecal specimens to the preservation solutions so that the fecal concentration would be 0.5% were preserved at 37° C. for 0, 7, 14, and 21 days. The fecal specimens were added with hemoglobin having an amount such that the hemoglobin concentration in the samples would be about 300 μg/L. Instead of the fecal specimens to which hemoglobin was added, samples containing no fecal specimens, in which hemoglobin was added to the preservation solutions so that the hemoglobin concentration in the samples would be 300 μg/L, were similarly preserved. The hemoglobin (Hb) concentrations (μg/L) in the preserved samples were measured by the latex agglutination method.
The concentrations of hemoglobin were measured using “OC-Hemodia (registered trademark) Auto III ‘EIKEN’” (available from EIKEN CHEMICAL CO., LTD.) as a measurement reagent and “OC-sensor DIANA” (available from EIKEN CHEMICAL CO., LTD.) as a measurement device. The above measurement reagent contains latex particles immobilizing an anti-human hemoglobin rabbit polyclonal antibody.
From the measured concentrations of hemoglobin, the recovery ratios (%) were calculated with respect to the hemoglobin concentrations immediately after the fecal specimens were added to the preservation solutions (i.e., concentrations 0 days after the fecal specimens were added).
(§1) For comparative examples, preservation solutions to which no arylboronic acid was added were prepared, and testing was conducted in the same manner.
(§2) The concentration of phenylboronic acid in the preservation solutions of Example 1 was fixed to 15 mmol/L, preservation solutions to which a sugar (sorbitol, sucrose, trehalose, glucose, fructose, or mannitol) was further added at 50 mmol/L or 100 mmol/L or preservation solutions to which no sugar was added were prepared, and testing was conducted in the same manner as in Example 1. For comparative examples, preservation solutions to which the phenylboronic acid and sugar were not added were prepared, and testing was conducted in the same manner.
Preservation solutions in which sorbitol, sucrose, trehalose, glucose, fructose, or mannitol was added at 100 mmol/L to the preservation solutions of Example 1 containing no phenylboronic acid were prepared, and testing was conducted in the same manner as in Example 1. For comparison, the same testing was conducted without adding these sugars.
as §2, with “sorbitol” for “a sugar (sorbitol, sucrose, trehalose, glucose, fructose, or mannitol)”, “was” for “was further”, “10 to 500” for “50”, “sucrose was added at 10 to 250” for “100”
as §1

Row | Compound | Hb concentration (Feces 1, 0 days) [µg/L] | Recovery ratio with respect to Hb after 0 days (Feces 1, 0 days) [%] | Hb concentration (Feces 1, 7 days) [µg/L] | Recovery ratio with respect to Hb after 0 days (Feces 1, 7 days) [%] | Hb concentration (Feces 1, 14 days) [µg/L] | Recovery ratio with respect to Hb after 0 days (Feces 1, 14 days) [%] | Hb concentration (Feces 2, 0 days) [µg/L] | Recovery ratio with respect to Hb after 0 days (Feces 2, 0 days) [%] | Hb concentration (Feces 2, 7 days) [µg/L] | Recovery ratio with respect to Hb after 0 days (Feces 2, 7 days) [%] | Hb concentration (Feces 2, 14 days) [µg/L] | Recovery ratio with respect to Hb after 0 days (Feces 2, 14 days) [%] | Hb concentration (Feces 3, 0 days) [µg/L] | Recovery ratio with respect to Hb after 0 days (Feces 3, 0 days) [%] | Hb concentration (Feces 3, 7 days) [µg/L] | Recovery ratio with respect to Hb after 0 days (Feces 3, 7 days) [%] | Hb concentration (Feces 3, 14 days) [µg/L] | Recovery ratio with respect to Hb after 0 days (Feces 3, 14 days) [%] | Hb concentration (No feces, 0 days) [µg/L] | Recovery ratio with respect to Hb after 0 days (No feces, 0 days) [%] | other results
1 | O=C(O)c1ccccc1B(O)O [2C-PBA, 2-carboxyphenylboronic acid] | 315 | 100 | 196 | 62 | 150 | 48 | 311 | 100 | 157 | 50 | 103 | 33 | 300 | 100 | 124 | 41 | 76 | 25 | 292 | 100 | Hb concentration (No feces, 7 days): 272 µg/L; Recovery ratio with respect to Hb after 0 days (No feces, 7 days): 93%; Hb concentration (No feces, 14 days): 264 µg/L; Recovery ratio with respect to Hb after 0 days (No feces, 14 days): 90%
2 | O=C(O)c1ccc(B(O)O)cc1 [4C-PBA, 4-carboxyphenylboronic acid] | 312 | 100 | 252 | 81 | 234 | 75 | 315 | 100 | 239 | 76 | 227 | 72 | 300 | 100 | 219 | 73 | 194 | 65 | 279 | 100 | Hb concentration (No feces, 7 days): 275 µg/L; Recovery ratio with respect to Hb after 0 days (No feces, 7 days): 98%; Hb concentration (No feces, 14 days): 271 µg/L; Recovery ratio with respect to Hb after 0 days (No feces, 14 days): 97%
